Laboratory results published in ChEMBL document CHEMBL1201862, “PubChem BioAssay data set” (2004).
Calls of active or inactive are those of the source.

Key:
[1] = biological target: T1, Nuclear receptor subfamily 0 group B member 1 (Homo sapiens, UniProt P51843); assay type: functional, cell-based;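 also: HEK293T cells transfected with SF-1 and DAX-1 plus StAR promoter luciferase reporter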
T1 sequence (P51843 whole entry): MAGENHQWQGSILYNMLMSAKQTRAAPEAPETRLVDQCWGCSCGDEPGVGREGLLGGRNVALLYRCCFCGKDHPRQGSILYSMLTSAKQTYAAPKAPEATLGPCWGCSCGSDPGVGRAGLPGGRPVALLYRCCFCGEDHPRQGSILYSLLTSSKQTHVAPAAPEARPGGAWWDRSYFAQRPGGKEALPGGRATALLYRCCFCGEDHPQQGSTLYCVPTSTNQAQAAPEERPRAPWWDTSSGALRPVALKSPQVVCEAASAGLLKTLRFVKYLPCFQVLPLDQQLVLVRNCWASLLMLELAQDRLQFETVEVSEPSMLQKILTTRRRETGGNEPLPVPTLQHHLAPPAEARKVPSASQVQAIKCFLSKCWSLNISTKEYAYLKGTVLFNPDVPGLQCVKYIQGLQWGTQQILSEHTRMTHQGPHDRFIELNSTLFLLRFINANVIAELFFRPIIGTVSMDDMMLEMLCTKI

cells = assay type: functional, cell-based
[2] = biological target: 72 kDa type IV collagenase (Homo sapiens, UniProt P08253); test: Dose Response validation of uHTS RPN11 inhibitor hits using a MMP-2 Fluorescence assay.; assay type: functional
Sequence of 72 kDa type IV collagenase (P08253 whole entry): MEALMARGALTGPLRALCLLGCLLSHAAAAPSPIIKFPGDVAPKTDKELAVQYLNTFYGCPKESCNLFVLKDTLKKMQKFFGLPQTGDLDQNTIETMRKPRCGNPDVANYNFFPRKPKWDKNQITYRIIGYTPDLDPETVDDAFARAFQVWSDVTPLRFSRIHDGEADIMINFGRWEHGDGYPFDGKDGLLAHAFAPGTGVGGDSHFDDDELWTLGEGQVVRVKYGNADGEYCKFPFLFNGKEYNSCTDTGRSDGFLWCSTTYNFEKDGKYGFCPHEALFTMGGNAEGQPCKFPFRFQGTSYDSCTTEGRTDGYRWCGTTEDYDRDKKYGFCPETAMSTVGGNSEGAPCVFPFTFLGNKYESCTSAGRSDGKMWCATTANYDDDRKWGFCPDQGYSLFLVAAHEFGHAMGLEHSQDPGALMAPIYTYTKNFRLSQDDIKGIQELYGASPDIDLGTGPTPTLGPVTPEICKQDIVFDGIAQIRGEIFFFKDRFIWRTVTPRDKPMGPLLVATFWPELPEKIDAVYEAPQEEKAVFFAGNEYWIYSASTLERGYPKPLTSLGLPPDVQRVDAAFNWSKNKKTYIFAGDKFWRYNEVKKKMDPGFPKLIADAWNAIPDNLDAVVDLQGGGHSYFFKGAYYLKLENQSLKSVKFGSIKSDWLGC

Prothrombin = Prothrombin (Bos taurus, UniProt P00735); test: thrombin inhibition, dose response, biochemical, fluorescence polarization, uHTS hits (AID 602369); assay type: functional
[3] = biological target: 26S proteasome non-ATPase regulatory subunit 14 (Homo sapiens, UniProt O00487); test: inhibition of proteasome subunit RPN11 – biochemical, fluorescence polarization, uHTS hits, confirmation (AID 602368); assay type: functional
Sequence of 26S proteasome non-ATPase regulatory subunit 14 (O00487 whole entry): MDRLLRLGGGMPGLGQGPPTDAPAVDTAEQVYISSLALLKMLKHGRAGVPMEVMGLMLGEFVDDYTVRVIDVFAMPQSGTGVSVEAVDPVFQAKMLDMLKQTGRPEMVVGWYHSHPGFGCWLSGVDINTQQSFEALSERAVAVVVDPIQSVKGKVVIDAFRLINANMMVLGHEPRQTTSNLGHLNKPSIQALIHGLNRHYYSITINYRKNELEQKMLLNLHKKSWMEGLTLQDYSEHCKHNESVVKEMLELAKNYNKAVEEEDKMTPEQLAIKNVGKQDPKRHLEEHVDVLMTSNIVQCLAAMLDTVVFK

H4 = test: Luminescence Cell-Based Dose Response HTS to Identify Activators of 5'UTR Stem-Loop Driven Prion Protein mRNA Translation in H4 Neuroglioblastoma Cells. [Related pubchem assays: 1829 (Project Summary), 1814 (Primary HTS)]; assay type: functional; settings: Homo sapiens
Cytochrome P450 3A4 = Cytochrome P450 3A4 (Homo sapiens, UniProt P08684);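 also: CYP3A4 tested as one member of a cytochrome P450 panel screen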
Sequence of Cytochrome P450 3A4 (P08684 whole entry): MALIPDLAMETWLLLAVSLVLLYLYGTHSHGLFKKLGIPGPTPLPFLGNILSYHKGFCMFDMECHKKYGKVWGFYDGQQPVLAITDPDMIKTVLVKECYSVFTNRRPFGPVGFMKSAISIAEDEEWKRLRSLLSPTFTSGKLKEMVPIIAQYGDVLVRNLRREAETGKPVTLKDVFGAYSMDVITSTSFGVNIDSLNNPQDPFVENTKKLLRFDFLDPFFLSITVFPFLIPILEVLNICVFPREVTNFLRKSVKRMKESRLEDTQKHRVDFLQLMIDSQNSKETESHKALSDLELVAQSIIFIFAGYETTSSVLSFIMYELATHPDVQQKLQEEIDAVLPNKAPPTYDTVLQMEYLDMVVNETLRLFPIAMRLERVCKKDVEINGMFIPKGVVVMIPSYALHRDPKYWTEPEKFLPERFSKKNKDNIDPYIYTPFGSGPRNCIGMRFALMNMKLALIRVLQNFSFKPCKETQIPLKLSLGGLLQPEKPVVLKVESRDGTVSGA

[4] = Luminescence Cell-Based Dose Confirmation HTS to Identify Activators of 5'UTR Stem-Loop Driven Alpha-Synuclein mRNA Translation in H4 Neuroglioblastoma Cells. [Related pubchem assays: 1829 (Project Summary), 1814 (Primary HTS)]; assay type: functional
Cytochrome P450 2C19 = Cytochrome P450 2C19 (Homo sapiens, UniProt P33261); test: Cytochrome panel assay with activity outcomes. Panel member name: p450-cyp2c19 Compounds with AC50 equal or less than 10 uM are considered active; assay type: functional; settings: read-out: AC50
Sequence of Cytochrome P450 2C19 (P33261 whole entry): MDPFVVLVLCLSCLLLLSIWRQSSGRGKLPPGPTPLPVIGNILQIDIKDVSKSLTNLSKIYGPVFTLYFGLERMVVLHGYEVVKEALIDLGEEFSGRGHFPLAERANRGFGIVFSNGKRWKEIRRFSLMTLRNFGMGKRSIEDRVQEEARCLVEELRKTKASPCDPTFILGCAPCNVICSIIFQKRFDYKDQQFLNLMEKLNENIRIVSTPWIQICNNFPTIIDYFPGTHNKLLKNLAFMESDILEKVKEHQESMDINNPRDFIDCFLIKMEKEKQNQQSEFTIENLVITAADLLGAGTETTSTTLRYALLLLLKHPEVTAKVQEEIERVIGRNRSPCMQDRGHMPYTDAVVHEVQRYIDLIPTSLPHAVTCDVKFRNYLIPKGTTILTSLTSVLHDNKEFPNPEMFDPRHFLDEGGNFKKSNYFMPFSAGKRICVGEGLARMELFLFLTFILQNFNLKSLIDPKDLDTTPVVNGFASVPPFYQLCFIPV

[5] = Luminescence Cell-Based Dose Response HTS to Identify Activators of Luciferase Translation or Activity in H4 […] Cells. [Related pubchem assays: 1829 (Project Summary), 1814 (Primary HTS)]; assay type: functional
Cytochrome P450 2C9 = Cytochrome P450 2C9 (Homo sapiens, UniProt P11712)
Sequence of Cytochrome P450 2C9 (P11712 whole entry): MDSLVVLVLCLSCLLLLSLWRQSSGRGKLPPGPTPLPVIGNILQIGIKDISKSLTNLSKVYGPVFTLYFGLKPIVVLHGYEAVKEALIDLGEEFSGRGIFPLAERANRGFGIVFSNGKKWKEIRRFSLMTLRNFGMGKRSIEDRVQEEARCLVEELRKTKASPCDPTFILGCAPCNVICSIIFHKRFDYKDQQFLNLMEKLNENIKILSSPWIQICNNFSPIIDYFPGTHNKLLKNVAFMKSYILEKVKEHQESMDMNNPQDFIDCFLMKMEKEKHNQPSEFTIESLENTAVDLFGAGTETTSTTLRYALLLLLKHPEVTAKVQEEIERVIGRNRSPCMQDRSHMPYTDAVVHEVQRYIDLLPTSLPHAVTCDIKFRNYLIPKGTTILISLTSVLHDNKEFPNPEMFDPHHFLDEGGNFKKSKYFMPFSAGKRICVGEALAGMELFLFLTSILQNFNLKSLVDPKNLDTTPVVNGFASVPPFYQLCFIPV

Melanocortin receptor 4 = Melanocortin receptor 4 (Homo sapiens, UniProt P32245); assay type: functional, cell-based;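 also: Cell-based assay with luminescence read-out, confirmatory dose-response testing for agonist activity of biased ligands at MC4R; human U2OS cells with tagged receptor and beta-arrestin; potency of agonists that increase receptor coupling to beta-arrestin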
Sequence of Melanocortin receptor 4 (P32245 whole entry): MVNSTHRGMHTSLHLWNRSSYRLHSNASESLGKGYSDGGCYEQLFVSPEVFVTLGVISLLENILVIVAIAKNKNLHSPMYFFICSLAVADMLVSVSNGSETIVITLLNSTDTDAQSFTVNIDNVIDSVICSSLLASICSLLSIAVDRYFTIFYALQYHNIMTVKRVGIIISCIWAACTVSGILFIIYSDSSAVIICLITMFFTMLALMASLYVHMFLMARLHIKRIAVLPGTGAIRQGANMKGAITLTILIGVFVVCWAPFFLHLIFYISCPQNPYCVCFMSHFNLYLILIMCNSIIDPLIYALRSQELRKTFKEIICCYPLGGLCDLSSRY

[6] = biological target: T2, Probable nicotinate-nucleotide adenylyltransferase (Staphylococcus aureus (strain N315), UniProt P65502); assay type: functional, Staphylococcus aureus subsp. aureus N315;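 as to IC50 Mean: confirmatory dose-response retesting of NadD inhibitor hits first found in an ultra-high-throughput screen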
T2 sequence (P65502 whole entry): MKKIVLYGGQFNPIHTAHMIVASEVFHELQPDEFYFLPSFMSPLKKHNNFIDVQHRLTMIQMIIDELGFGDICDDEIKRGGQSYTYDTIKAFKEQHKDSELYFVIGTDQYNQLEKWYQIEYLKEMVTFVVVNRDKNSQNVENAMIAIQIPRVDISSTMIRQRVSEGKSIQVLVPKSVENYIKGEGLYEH

[7] = biological target: T2, Probable nicotinate-nucleotide adenylyltransferase; assay type: functional, Staphylococcus aureus subsp. aureus N315; settings: read-out: IC50_Mean
HeLa = test: HeLa cell cytotoxicity, dose response, cytotoxicity control for MITF activator project, CellTiter-Glo luminescence, cherry-pick samples (AID 540259); assay type: functional, cell-based; settings: Homo sapiens
[8] = biological target: T3, Sentrin-specific protease 8 (Homo sapiens, UniProt Q96LD8); test: SENP8 protease inhibitors, SAR follow-up, biochemical, luminescence (AID 504501); assay type: functional
T3 sequence (Q96LD8 whole entry): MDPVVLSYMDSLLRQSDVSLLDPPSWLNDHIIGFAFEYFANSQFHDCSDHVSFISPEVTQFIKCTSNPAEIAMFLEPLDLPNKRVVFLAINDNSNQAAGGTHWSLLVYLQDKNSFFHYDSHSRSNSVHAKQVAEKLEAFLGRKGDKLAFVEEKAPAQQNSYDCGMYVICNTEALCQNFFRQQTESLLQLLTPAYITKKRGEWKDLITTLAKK

[9] = biological target: T4, Sentrin-specific protease 6 (Homo sapiens, UniProt Q9GZR1); test: SAR Analysis of small molecule inhibitors of Sentrin-specific protease 6 (SENP6) using a Luminescent assay. [Related pubchem assays (depositor defined):AID2582, AID2599]; assay type: functional
T4 sequence (Q9GZR1 whole entry): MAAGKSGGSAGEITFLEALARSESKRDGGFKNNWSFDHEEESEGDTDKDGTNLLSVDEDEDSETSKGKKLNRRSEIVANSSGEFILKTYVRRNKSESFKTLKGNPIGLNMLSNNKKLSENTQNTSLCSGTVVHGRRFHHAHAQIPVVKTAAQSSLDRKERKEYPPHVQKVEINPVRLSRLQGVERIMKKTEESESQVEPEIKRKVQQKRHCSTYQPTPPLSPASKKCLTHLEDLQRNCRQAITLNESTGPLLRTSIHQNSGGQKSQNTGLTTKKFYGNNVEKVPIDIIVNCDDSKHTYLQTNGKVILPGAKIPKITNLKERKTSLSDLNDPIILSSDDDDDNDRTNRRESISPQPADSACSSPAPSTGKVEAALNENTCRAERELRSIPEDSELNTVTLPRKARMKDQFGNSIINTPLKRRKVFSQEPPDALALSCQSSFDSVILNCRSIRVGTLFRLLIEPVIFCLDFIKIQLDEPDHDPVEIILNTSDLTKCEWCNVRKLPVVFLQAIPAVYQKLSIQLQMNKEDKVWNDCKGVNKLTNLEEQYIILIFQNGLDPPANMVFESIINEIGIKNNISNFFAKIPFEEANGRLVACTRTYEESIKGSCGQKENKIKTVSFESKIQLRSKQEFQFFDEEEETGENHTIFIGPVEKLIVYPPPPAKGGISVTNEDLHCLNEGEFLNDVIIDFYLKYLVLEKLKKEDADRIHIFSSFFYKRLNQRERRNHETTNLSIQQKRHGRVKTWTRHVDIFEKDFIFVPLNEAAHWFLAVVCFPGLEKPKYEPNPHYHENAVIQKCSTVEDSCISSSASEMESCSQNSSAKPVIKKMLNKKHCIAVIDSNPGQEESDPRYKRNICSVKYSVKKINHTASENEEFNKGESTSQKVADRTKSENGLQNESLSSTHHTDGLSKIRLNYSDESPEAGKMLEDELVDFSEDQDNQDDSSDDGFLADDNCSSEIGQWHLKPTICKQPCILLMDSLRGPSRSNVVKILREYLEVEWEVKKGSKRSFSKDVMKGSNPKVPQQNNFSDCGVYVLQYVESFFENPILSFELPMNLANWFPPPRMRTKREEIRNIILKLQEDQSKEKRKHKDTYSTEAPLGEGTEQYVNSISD

[10] = biological target: T5, Sentrin-specific protease 7 (Homo sapiens, UniProt Q9BQF6); test: SENP7 protease inhibitors, SAR follow-up, biochemical, luminescence (AID 504497); assay type: functional
T5 sequence (Q9BQF6 whole entry): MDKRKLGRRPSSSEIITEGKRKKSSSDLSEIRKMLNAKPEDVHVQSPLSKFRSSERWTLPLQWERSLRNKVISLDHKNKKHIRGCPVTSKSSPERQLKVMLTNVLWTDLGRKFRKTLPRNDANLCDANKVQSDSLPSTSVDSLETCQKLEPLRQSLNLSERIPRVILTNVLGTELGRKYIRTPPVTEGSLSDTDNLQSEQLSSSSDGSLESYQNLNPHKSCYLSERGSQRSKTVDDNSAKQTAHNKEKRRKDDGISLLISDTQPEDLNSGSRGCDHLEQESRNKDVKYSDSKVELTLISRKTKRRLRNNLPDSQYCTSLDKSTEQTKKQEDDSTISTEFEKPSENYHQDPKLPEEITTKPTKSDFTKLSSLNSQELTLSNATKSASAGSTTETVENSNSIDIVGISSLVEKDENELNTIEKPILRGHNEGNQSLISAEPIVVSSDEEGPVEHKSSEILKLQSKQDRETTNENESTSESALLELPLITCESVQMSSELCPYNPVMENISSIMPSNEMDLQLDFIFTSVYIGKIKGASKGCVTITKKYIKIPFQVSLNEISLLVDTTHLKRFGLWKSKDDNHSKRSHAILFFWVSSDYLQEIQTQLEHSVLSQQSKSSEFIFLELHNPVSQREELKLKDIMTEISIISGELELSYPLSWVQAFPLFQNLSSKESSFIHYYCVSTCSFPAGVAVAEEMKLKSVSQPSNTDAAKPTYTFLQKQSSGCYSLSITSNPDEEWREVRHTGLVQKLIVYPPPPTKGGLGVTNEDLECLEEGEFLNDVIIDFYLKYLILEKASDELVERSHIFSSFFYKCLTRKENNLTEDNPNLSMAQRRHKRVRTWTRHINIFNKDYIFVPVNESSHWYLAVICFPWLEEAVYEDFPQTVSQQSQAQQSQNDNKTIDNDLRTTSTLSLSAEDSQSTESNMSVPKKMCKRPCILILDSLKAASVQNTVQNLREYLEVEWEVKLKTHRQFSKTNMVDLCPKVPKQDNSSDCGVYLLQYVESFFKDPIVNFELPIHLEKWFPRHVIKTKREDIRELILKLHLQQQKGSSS

Caspase-3 = biological target: T6, Caspase-3 (Homo sapiens, UniProt P42574); test: SAR Analysis of small molecule inhibitors of Sentrin-specific proteases (SENPs) using a Caspase-3 Selectivity assay. [Related pubchem assays (depositor defined):AID2540, AID2599, AID434973, AID489001]; assay type: functional
T6 sequence (P42574 whole entry): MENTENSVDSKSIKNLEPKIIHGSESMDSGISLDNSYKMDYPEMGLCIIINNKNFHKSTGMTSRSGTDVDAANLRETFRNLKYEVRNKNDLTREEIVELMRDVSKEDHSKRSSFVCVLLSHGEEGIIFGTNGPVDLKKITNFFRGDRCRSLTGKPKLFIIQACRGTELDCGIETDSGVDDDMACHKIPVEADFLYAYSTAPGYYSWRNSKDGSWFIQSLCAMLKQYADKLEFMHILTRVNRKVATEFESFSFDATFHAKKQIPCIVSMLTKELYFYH

H9c2 = test: cells; assay type: functional, cell-based; settings: Rattus norvegicus, H9c2, Myocardium;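 also: confirmatory concentration-response retest of ultra-high-throughput screening hits for modulation of myocardial damage; cell death induced by hydrogen peroxide oxidative stress; compound pretreatment for 60 min then peroxide exposure for 2 h; potency is for protecting the cells against peroxide damage rather than for killing them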
[11] = biological target: Induced myeloid leukemia cell differentiation protein Mcl-1 (Homo sapiens, UniProt Q07820); assay type: functional
Sequence of Induced myeloid leukemia cell differentiation protein Mcl-1 (Q07820 whole entry, the tested form may be a part): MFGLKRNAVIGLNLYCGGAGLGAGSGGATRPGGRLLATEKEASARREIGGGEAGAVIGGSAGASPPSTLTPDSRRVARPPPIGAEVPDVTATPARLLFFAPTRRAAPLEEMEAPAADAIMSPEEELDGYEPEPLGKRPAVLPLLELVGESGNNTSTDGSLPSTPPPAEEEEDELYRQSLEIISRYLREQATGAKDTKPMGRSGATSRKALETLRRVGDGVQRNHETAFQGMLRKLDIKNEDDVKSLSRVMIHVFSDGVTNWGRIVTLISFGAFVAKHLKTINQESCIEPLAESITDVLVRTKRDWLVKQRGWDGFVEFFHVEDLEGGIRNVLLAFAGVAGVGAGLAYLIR

[12] = biological target: T7, Carboxy-terminal domain RNA polymerase II polypeptide A small phosphatase 1 (Homo sapiens, UniProt Q9GZU7); test: inhibitors of CTDSP1, concentration-response testing, biochemical assay, absorbance-based, actives from ultra-high-throughput screening (AID 540297); assay type: functional
T7 sequence (Q9GZU7 whole entry): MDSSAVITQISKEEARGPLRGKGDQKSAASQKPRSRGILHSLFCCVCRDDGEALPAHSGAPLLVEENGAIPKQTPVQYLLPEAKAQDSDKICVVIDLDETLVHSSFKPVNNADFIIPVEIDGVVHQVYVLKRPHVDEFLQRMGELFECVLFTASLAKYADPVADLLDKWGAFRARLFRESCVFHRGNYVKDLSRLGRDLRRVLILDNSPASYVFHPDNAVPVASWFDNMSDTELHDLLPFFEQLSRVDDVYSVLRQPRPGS

COc1ccc(-n2nc3cc(C)c(NC(C)=O)cc3n2)cc1
IC50 [1]: > 0.278 µM (active)
IC50 (cells): > 67.6 µM (inactive)

COc1cc(/C=C/c2nc(O)c3ccccc3n2)cc(Br)c1O
IC50 [2]: > 100 µM (inactive)
IC50 (Prothrombin): 88 µM (active)
IC50 [3]: 0.914 µM (active)

CCc1ccc(-c2cc(C(=O)NCc3ccco3)c3ccccc3n2)s1
EC50 (H4): 23.9 µM (active)
IC50 [2]: > 100 µM (inactive)
IC50 (Prothrombin): 55.8 µM (active)
AC50 (Cytochrome P450 3A4): 15.8 µM (inconclusive)
EC50 [4]: 11.2 µM (active)
IC50 [3]: 40.7 µM (active)
AC50 (Cytochrome P450 2C19): 4.47 µM (inconclusive)
EC50 [5]: 5.65 µM (active)
AC50 (Cytochrome P450 2C9): 2 µM (inconclusive)

CCOCCCN(Cc1ccco1)C(=O)c1cc2c(=O)[nH]c3ccc(C)cc3c2s1
EC50 (Melanocortin receptor 4): > 89.2 µM (inactive)

NC(CSC1(c2cccc3ccccc23)c2ccccc2-c2ccccc21)C(=O)O (stereo unspecified)
IC50 [6]: 9.51 µM (active)
IC50 [7]: 27.7 µM (active)

CCCCNc1ccc2c(c1)C1CC2CCN1C(=O)OCc1ccccc1 (stereo unspecified)
IC50 [1]: > 67.5 µM (inactive)
AC50 (HeLa): 76.2 µM (active)
IC50 (cells): > 67.5 µM (inactive)

Cc1ccc([S+]([O-])Cc2ccc(C(=O)N3CCN(C4CCCCC4)CC3)o2)cc1 (stereo unspecified)
IC50 [1]: > 67.6 µM (inactive)
IC50 (cells): > 67.6 µM (inactive)

COc1ccc(N/N=C/c2c[nH]c3ccccc23)cc1
IC50 [8]: 29.5 µM (active)
IC50 [9]: 25.8 µM (active)
IC50 [10]: 11.4 µM (active)
IC50 (Caspase-3): 19.9 µM (active)

COc1ccccc1-c1cc(NC(C)=O)c2ncc(-c3cccc(C(C)=O)c3)n2c1
IC50 (H9c2): > 79 µM (inactive)
EC50 (Melanocortin receptor 4): > 89.2 µM (inactive)

COc1cccc(-c2noc(/C=C/c3ccccc3Cl)n2)c1
IC50 [8]: 18 µM (active)
IC50 [9]: 14 µM (active)
IC50 [10]: 5.2 µM (active)
IC50 (Caspase-3): 20 µM (active)

O=C(N/N=C\C=C\c1ccco1)c1cc(-c2ccc3ccccc3c2)[nH]n1
IC50 [6]: 6.68 µM (active)
IC50 [11]: 3.98 µM (active)
IC50 [12]: 2.96 µM (active)
IC50 [7]: 20.3 µM (active)
